Test results: patent US7935724B2, “Thiophene and benzothiophene hydroxamic acid derivatives” (Merck HDAC Research, LLC, priority 2003, dated 2011)

Tests used:
[1] = biological target: T1, histone deacetylase, subtype 1 (HDAC1) (Homo sapiens, UniProt Q13547); assay: HDAC1-Flag assay (in vitro deacetylation assay); type: biochemical; details: Table 1, benzothiophene backbone; concentration for 50% inhibition of deacetylation; substrate at Km; unit inferred, text gives nm; read-out: HDAC Inhibition
T1 construct: Flag; made in house
Experimental: Novel compounds were tested for their ability to inhibit histone deacetylase, subtype 1 (HDAC1) using an in vitro deacetylation assay. The enzyme source for this assay was an epitope-tagged human HDAC1 complex immuno-purified from stably expressing mammalian cells. The substrate consisted of a commercial product containing an acetylated lysine side chain (BIOMOL Research Laboratories, Inc., Plymouth Meeting, Pa.). Upon deacetylation of the substrate by incubation with the purified HDAC1 complex, a fluorophore is produced that is directly proportional to the level of deacetylation.

[2] = system: murine erythroleukemia cell line SC9; assay: MTS assay (Cell Titer 96 Aqueous One Solution Cell Proliferation Assay); type: cell-based; details: unit inferred, unit nm
Experimental: The novel compounds of the present invention were tested for their ability to inhibit proliferation of the murine erythroleukemia cell line SC9.
The MTS assay, also referred to as the Cell Titer 96 Aqueous One Solution Cell Proliferation Assay, is a calorimetric method for determining the number of viable cells in proliferation, cytotoxicity or chemosensitivity assays. The MTS reagent contains a novel tetrazolium compound [3-(4,5-dimethylthiazol-2-yl)-5-(3-carboxymethoxyphenyl)-2-(4-sulfophenyl)-2H-tetrazolium, inner salt] and electron coupling reagent (phenazine ethosulfate;PES). Murine erythroleukemia cells (SC-9) were incubated with vehicle or increasing concentrations of compound for 48 hours. Cell proliferation was quantitated by adding a small amount of the MTS reagent directly to culture wells, incubating for 1-4 hours and then recording the absorbance at 490 nm with a 96-well plate reader. The quantity of formazan product, as measured by […] absorbance, is directly proportional to the number of living cells in culture.

[3] = Mus musculus, SC9, 48 h, Table 3, concentration inhibiting proliferation of SC9 cells
[4] = Table 3, concentration inhibiting proliferation of SC9 cells, 48 hours

T1 sequence (Q13547 whole entry): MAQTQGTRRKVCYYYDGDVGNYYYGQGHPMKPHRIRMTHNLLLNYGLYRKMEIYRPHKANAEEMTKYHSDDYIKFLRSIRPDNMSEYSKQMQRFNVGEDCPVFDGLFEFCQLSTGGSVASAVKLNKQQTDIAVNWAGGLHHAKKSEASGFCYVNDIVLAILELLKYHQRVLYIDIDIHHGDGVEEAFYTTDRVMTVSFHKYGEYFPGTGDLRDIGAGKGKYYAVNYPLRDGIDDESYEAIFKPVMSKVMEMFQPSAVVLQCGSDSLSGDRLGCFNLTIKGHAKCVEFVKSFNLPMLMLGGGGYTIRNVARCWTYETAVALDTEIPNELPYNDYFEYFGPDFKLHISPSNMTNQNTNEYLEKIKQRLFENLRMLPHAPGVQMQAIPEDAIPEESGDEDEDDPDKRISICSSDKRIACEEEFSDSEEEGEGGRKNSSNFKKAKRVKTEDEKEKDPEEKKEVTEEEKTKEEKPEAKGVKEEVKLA

Structure (SMILES) | IC50 [1] [µM] | IC50 [2, 3] [µM] | IC50 [2, 4] [µM]
O=C(Cc1cccnc1)Nc1ccc2cc(C(=O)NO)sc2c1 [Compound 110] | 0.061 ± 0.0155 | 0.833 ± 0.065 | 
O=C(CN1CCCCC1)Nc1ccc2cc(C(=O)NO)sc2c1 [Compound 115] | 0.038 | 0.306 ± 0.0785 | 
O=C(CN1CCN(c2ccccc2Cl)CC1)Nc1ccc2cc(C(=O)NO)sc2c1 [Compound 119] | 0.0366 ± 0.0132 | 0.568 ± 0.227 | 
CC(C(=O)Nc1ccc2cc(C(=O)NO)sc2c1)c1ccccc1 (stereo not drawn) [Compound 123] | 0.018 ± 0.0056 | 0.206 ± 0.0792 | 
O=C(NO)c1cc2ccc(NC(=O)C3(c4ccccc4)CC3)cc2s1 [Compound 126] | 0.125 ± 0.0056 | 0.836 | 
O=C(NO)c1cc2ccc(NC(=O)C3(c4ccc(Cl)cc4)CCC3)cc2s1 [Compound 127] | 0.115 ± 0.0098 | 0.935 | 
O=C(NO)c1cc2cc(CNCc3ccccn3)ccc2s1 [Compound 142] | 0.258 ± 0.017 | 0.714 | 
O=C(NO)c1cc2cc(CNCCc3c[nH]c4ccccc34)ccc2s1 [Compound 145] | 0.151 ± 0.0282 | 0.99 | 
O=C(NO)c1cc2cc(CNC3CCN(Cc4ccccc4)CC3)ccc2s1 [Compound 146] | 0.524 ± 0.102 | 0.891 | 
COc1ccccc1CNCc1ccc2sc(C(=O)NO)cc2c1 [Compound 147] | 0.0755 ± 0.0077 | 0.201 ± 0.0593 | 
COc1cccc(CNCc2ccc3sc(C(=O)NO)cc3c2)c1 [Compound 148] | 0.1 ± 0.0127 | 0.43 ± 0.132 | 
O=C(NO)c1cc2cc(CNCCc3ccccc3)ccc2s1 [Compound 151] | 0.203 ± 0.0148 | 0.947 | 
O=C(NO)c1cc2cc(CNCc3ccc(Cl)cc3)ccc2s1 [Compound 153] | 0.124 ± 0.024 | 0.531 | 
O=C(NO)c1cc2cc(CNCCCc3ccccc3)ccc2s1 [Compound 154] | 0.163 ± 0.0374 | 0.637 | 
O=C(NO)c1cc2cc(CNCCC(c3ccccc3)c3ccccc3)ccc2s1 [Compound 155] | 0.967 ± 0.215 | 0.39 | 
O=C(NO)c1cc2cc(CNCCCCc3ccccc3)ccc2s1 [Compound 156] | 0.275 ± 0.0346 | 0.966 | 
COc1ccc(CNCc2ccc3sc(C(=O)NO)cc3c2)cc1 [Compound 162] | 0.11 ± 0.0141 | 0.587 | 
O=C(NO)c1cc2cc(CNCC3CCCCC3)ccc2s1 [Compound 164] | 0.207 ± 0.0381 | 0.545 ± 0.024 | 
O=C(CN(CC(=O)Nc1ccccc1)c1ccc2sc(C(=O)NO)cc2c1)Nc1ccccc1 [Compound 177] | 0.0573 ± 0.0185 | 0.259 ± 0.0487 | 
O=C(CN(CC(=O)Nc1ccccc1)c1ccc2cc(C(=O)NO)sc2c1)Nc1ccccc1 [Compound 178] | 0.0065 ± 0.0007 | 0.2 ± 0.0197 | 
CCC(C(=O)Nc1ccc2cc(C(=O)NO)sc2c1)c1ccccc1 (stereo not drawn) [Compound 180] | 0.0185 ± 0.0021 |  | 0.14
CCC(C(=O)Nc1ccc2cc(C(=O)NO)sc2c1)c1ccccc1 (stereo not drawn) [Compound 181] | 0.0595 ± 0.0035 |  | 0.528
COc1ccccc1CNCc1ccc2cc(C(=O)NO)sc2c1 [Compound 185] | 0.0485 ± 0.0063 | 0.09 | 
COc1cccc(CNCc2ccc3cc(C(=O)NO)sc3c2)c1 [Compound 186] | 0.0555 ± 0.0091 | 0.093 | 
COc1ccc(CNCc2ccc3cc(C(=O)NO)sc3c2)cc1 [Compound 187] | 0.023 ± 0.0014 | 0.056 | 
O=C(NO)c1cc2ccc(CNCCc3c[nH]c4ccccc34)cc2s1 [Compound 188] | 0.0825 ± 0.0162 | 0.191 | 
CC(C)(C(=O)Nc1ccc2cc(C(=O)NO)sc2c1)c1ccccc1 [Compound 189] | 0.072 ± 0.0141 | 0.493 | 
